In US9936701B2, “Herbicidal compounds” (Syngenta Participations AG, priority 2013, dated 2018):

How the values were obtained:
[1] = system: a variety of test species; experiment: Post-emergence herbicidal activity (glasshouse, sprayed after 8 days cultivation, evaluated after 13 days); assay type: in vivo; set-up: key: 5=total damage to plant; 0=no damage to plant; settings: rate 1000 g/Ha, scale 0-5
How it was run: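 Visual herbicidal injury (0 = no damage, 5 = plant killed) recorded 13 days post-treatment. Treatment consisted of a single spray onto emerged seedlings at day 8; conditions before and after were 24/16 °C, 14 h light, 65% humidity.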

[2] = system: a variety of test species; experiment: Pre-emergence herbicidal activity (glasshouse, sprayed one day after sowing, evaluated after 13 days); assay type: in vivo; set-up: key: 5=total damage to plant; 0=no damage to plant; settings: application pre-emergence, rate 1000 g/Ha, scale 0-5
How it was run: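 Pre-emergence spray, one day post-sowing; vehicle acetone/water (50:50) + 0.5% Tween 20, aqueous dilution. Glasshouse 24/16 °C, 14 h light, 65% RH, watering twice daily. Score at 13 d on 0–5 scale, 5 = total damage.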

Row | melting point [°C] | Compound | ABUTH (Abutilon theophrasti) damage score, application post-emergence [1] | ALOMY (Alopecurus myosuroides) damage score, application post-emergence [1] | AMARE (Amaranthus retroflexus) damage score, application post-emergence [1] | ECHCG (Echinochloa crus-galli) damage score, application post-emergence [1] | SETFA (Setaria faberi) damage score, application post-emergence [1] | ZEAMX (Zea mays) damage score, application post-emergence [1] | Pre-emergence herbicidal damage score, ABUTH [2] | Pre-emergence herbicidal damage score, ALOMY [2] | Pre-emergence herbicidal damage score, AMARE [2] | Pre-emergence herbicidal damage score, ECHCG [2] | Pre-emergence herbicidal damage score, SETFA [2] | Pre-emergence herbicidal damage score, ZEAMX [2]
1 | 158 to 160 | CC1=C(Cl)C(=O)N(c2noc(C(C)(C)C)c2Br)C1O (stereo not shown) [A23, 1-(4-bromo-5-tert-butyl-isoxazol-3-yl)-4-chloro-2-hydroxy-3-methyl-2H-pyrrol-5-one] | 5 | 5 | 5 | 5 | 5 | 4 | 5 | 4 | 5 | 5 | 3 | 3
2 | 143 to 145 | CC1=C(Cl)C(=O)N(c2noc(C(C)(C)C)c2Cl)C1O (stereo not shown) [A24] | 5 | 5 | 5 | 5 | 5 | 4 | 5 | 4 | 4 | 5 | 4 | 2
3 | 141 to 143 | CC1=C(Cl)C(=O)N(c2cc(C3CCCCC3)on2)C1O (stereo not shown) [A25] | 5 | 3 | 4 | 4 | 5 | 1 | 3 | 2 | 5 | 2 | 0 | 0
4 | 177 to 178 | CC1=C(Cl)C(=O)N(c2cc(C3(C)CC3)on2)C1O (stereo not shown) [A26] | 5 | 4 | 5 | 5 | 5 | 5 | 5 | 4 | 5 | 5 | 5 | 3
5 | 107 to 109 | C=CCC(C)(C)c1cc(N2C(=O)C(Cl)=C(C)C2O)no1 (stereo not shown) [A28] | 5 | 5 | 5 | 5 | 5 | 4 | 5 | 4 | 5 | 5 | 4 | 2
6 | 103 to 105 | CCC(C)(C)c1cc(N2C(=O)C(Cl)=C(C)C2O)no1 (stereo not shown) [A29] | 5 | 4 | 5 | 5 | 4 | 3 | 5 | 3 | 5 | 5 | 4 | 1
7 | 118 to 120 | CC1=C(Cl)C(=O)N(c2cc(C(C)c3ccccc3)on2)C1O (stereo not shown) [A30] | 5 | 3 | 5 | 5 | 4 | 2 | 2 | 2 | 4 | 1 | 1 | 1
8 | 174 to 176 | CC1=C(Cl)C(=O)N(c2noc(C(C)(C)C)c2C#N)C1O (stereo not shown) [A31, 5-tert-butyl-3-(4-chloro-2-hydroxy-3-methyl-5-oxo-2H-pyrrol-1-yl)isoxazole-4-carbonitrile] | 5 | 5 | 5 | 5 | 5 | 4 | 5 | 3 | 5 | 5 | 5 | 3
9 | 66 to 68 | C=CCOCC(C)(C)c1cc(N2C(=O)C(Cl)=C(C)C2O)no1 (stereo not shown) [A33] | 5 | 4 | 5 | 5 | 4 | 5 | 3 | 2 | 5 | 4 | 3 | 3
10 | 99 to 101 | CCOCC(C)(C)c1cc(N2C(=O)C(Cl)=C(C)C2O)no1 (stereo not shown) [A34] | 5 | 4 | 5 | 5 | 4 | 5 | 5 | 3 | 5 | 5 | 4 | 2
11 | 72 to 74 | CC(C)=CCCc1cc(N2C(=O)C(Cl)=C(C)C2O)no1 (stereo not shown) [A35] | 4 | 1 | 5 | 2 | 0 | 1 | 1 | 1 | 3 | 0 | 0 | 0
12 | 110 to 112 | CCOC(C)(C)CCCc1cc(N2C(=O)C(Cl)=C(C)C2O)no1 (stereo not shown) [A36] | 5 | 4 | 5 | 5 | 2 | 1 | 5 | 3 | 5 | 4 | 1 | 1
13 | 96 to 98 | CCCC(C)(C)c1cc(N2C(=O)C(Cl)=C(C)C2O)no1 (stereo not shown) [A37] | 5 | 5 | 5 | 5 | 5 | 3 | 5 | 4 | 5 | 5 | 4 | 1
